Measured values from patent publication US12714696B2, “Low dose fluralaner compositions for protection against parasitic invertebrate pest” (VIRBAC, priority 2019, dated 2026).
“And” between values parts separate entries of the source, which are not always exact repeats. Equal entries are not always repeated. Where two headings read alike, the source gives them in different places.

Assay: Pharmacokinetics after repeated oral administration of 35 μg/kg of fluralaner in dogs after feeding
Assay type: in vivo, beagle dogs
Conditions: for concentration at 24 h / concentration at 48 h / concentration at 72 h / concentration at 96 h / concentration at 120 h / concentration at 240 h / concentration at 360 h / concentration at 480 h: po, 35 μg/kg
Procedure: The first objective of the study was to obtain the pharmacokinetic parameters after repeated oral administration of 35 μg/kg of fluralaner in dogs, 30 to 35 minutes after feeding.
The second objective was to investigate the pharmacodynamics between the fluralaner plasmatic dose and the effectiveness against fleas. • IVP: Investigational Veterinary Product, is pure Fluralaner+DMSO (35 μg/kg on Days 0 to 3 (0.35 mL/kg)) • Control product is DMSO (0.35 mL/kg on Days 0 to 3)
On Days 0, 1, 2 and 3, all dogs assigned to group 2 received the Investigational Veterinary Product. On Days 0 to 3 all dogs in group 1 received the control product at a volume equal to the dogs in group 2. Dogs assigned to group 1 received the control product and served as Placebo controls. The quantity of Investigational Veterinary Product and control product administered was calculated according to the dog's individual body weight measured on Day −1.
Blood samples were taken from all dogs prior to Investigational Veterinary Product treatment or control product administration on Day 0 and on Days 1 (+24 hours), 2 (+48 hours), 3 (+72 hours), 4 (+96 hours), 5 (+120 hours), 10 (+240 hours), 15 (+360 hours), 20 (+480 hours), 24 (+576 hours) and Day 28 (+672 hours).
On days of administration of pre-Investigational Veterinary Product or Control Product, dogs were fed (the same dog food) approximately half of their normal daily ration 30 minutes to 35 minutes prior to administration. Food consumed by the time of administration was calculated and recorded. The remainder of their normal daily ration was fed immediately after administration.
The PK parameters of fluralaner were calculated using a non-compartmental approach.
The following rules were applied for the calculation of the PK parameters: • All the plasma concentrations, validated by the bioanalytical laboratory, were used for the PK analysis. • The actual blood sampling times were used throughout. • Concentrations below the Limit of Quantification (LOQ) value were considered as zero from time zero (pre-dose) up to the time at which the first quantifiable concentration above the LOQ value was observed. Concentrations below the LOQ value between two quantifiable concentrations were considered as missing. Trailing concentrations below the LOQ value were not used in calculations.
Cmax the observed maximum concentration in plasma measured after dosing.
tmax the time at which Cmax was apparent.
λz the terminal rate constant (λz) was estimated by log-linear regression analysis on data points visually assessed, to be on the terminal log-linear phase. For the slope of the terminal elimination phase to be accepted as reliable, the following criteria were used: • the terminal data points were apparently randomly distributed about a single straight line (on visual inspection), • a minimum of three data points, including the last measured data point and excluding Cmax, were available for the regression.
t1/2 the terminal plasma half-life (t1/2) was calculated according to the following equation: […]
AUC0-t the area under the concentration-time curve from time zero (pre-dose) to the time of last quantifiable concentration (t) was calculated using a linear trapezoidal method.
[AUC0-∞=AUC0-t+(Ct/λz)], where Ct was the observed concentration of drug for the last sample on the PK profile in which the drug was detected, and λz was as defined above.
The extrapolated area under the curve, expressed as a percentage of the total area, AUCinf, was also calculated as: Area Extra (%)=(AUC0-∞−AUC0-t)/AUC0-∞*100%.

SMILES: Cc1cc(C2=NOC(c3cc(Cl)cc(Cl)c3)(C(F)(F)F)C2)ccc1C(=O)NCC(=O)NCC(F)(F)F (centres unmarked) [fluralaner, Fluralaner]
- fluralaner concentration levels, individual animal (24 h, oral 35 μg/kg Days 0-3, dogs): 16.5 ng/mL and 16.9 ng/mL (2×) and 18.1 ng/mL and 19.0 ng/mL
- fluralaner concentration levels, individual animal (48 h, oral 35 μg/kg Days 0-3, dogs): 27.8 ng/mL and 32.2 ng/mL and 37.2 ng/mL and 35.2 ng/mL and 40.9 ng/mL
- fluralaner concentration levels, individual animal (72 h, oral 35 μg/kg Days 0-3, dogs): 60.6 ng/mL and 47.9 ng/mL and 61.0 ng/mL and 42.0 ng/mL and 57.7 ng/mL
- fluralaner concentration levels, individual animal (96 h, oral 35 μg/kg Days 0-3, dogs): 76.6 ng/mL and 91.6 ng/mL and 84.5 ng/mL and 71.8 ng/mL and 92.4 ng/mL
- fluralaner concentration levels, individual animal (120 h, oral 35 μg/kg Days 0-3, dogs): 60.1 ng/mL and 63.6 ng/mL and 55.6 ng/mL and 62.9 ng/mL and 70.0 ng/mL
- fluralaner concentration levels, individual animal (240 h, oral 35 μg/kg Days 0-3, dogs): 45.8 ng/mL and 34.1 ng/mL and 36.3 ng/mL and 51.6 ng/mL and 44.4 ng/mL
- fluralaner concentration levels, individual animal (360 h, oral 35 μg/kg Days 0-3, dogs): 39.2 ng/mL and 39.6 ng/mL and 43.5 ng/mL and 37.4 ng/mL and 35.2 ng/mL
- fluralaner concentration levels, individual animal (480 h, oral 35 μg/kg Days 0-3, dogs): 26.1 ng/mL and 17.1 ng/mL and 21.1 ng/mL and 26.6 ng/mL and 18.4 ng/mL
- fluralaner concentration levels, individual animal (576 h, oral 35 μg/kg Days 0-3, dogs): 22.0 ng/mL and 14.7 ng/mL and 15.0 ng/mL and 22.2 ng/mL and 13.3 ng/mL
- fluralaner concentration levels, individual animal (672 h, oral 35 μg/kg Days 0-3, dogs): 15.1 ng/mL and 9.1 ng/mL and 10.3 ng/mL and 16.0 ng/mL and 10.4 ng/mL
- steady state concentrations (after the fourth dose of 35 μg/kg per day oral): not reached
- tmax (beagle, dog, plasma, 35 ug/kg, oral 35 μg/kg Days 0-3, dogs, read-out: Tmax, individual animal): 96 h
- concentration at 24 h (beagle, dog, plasma, 24 h, oral 35 μg/kg Days 0-3, dogs, n=6, read-out: fluralaner concentration levels, GeoMean): 17.3 ng/mL
- concentration at 24 h (beagle, dog, plasma, 24 h, oral 35 μg/kg Days 0-3, dogs, n=6, read-out: fluralaner concentration levels, Maximum): 19 ng/mL
- concentration at 24 h (beagle, dog, plasma, 24 h, oral 35 μg/kg Days 0-3, dogs, n=6, read-out: fluralaner concentration levels, Mean): 17.4 ng/mL
- concentration at 24 h (beagle, dog, plasma, 24 h, oral 35 μg/kg Days 0-3, dogs, n=6, read-out: fluralaner concentration levels, Median): 16.9 ng/mL
- concentration at 24 h (beagle, dog, plasma, 24 h, oral 35 μg/kg Days 0-3, dogs, n=6, read-out: fluralaner concentration levels, Minimum): 18.5 ng/mL
- concentration at 24 h (beagle, dog, plasma, 24 h, oral 35 μg/kg Days 0-3, dogs, read-out: fluralaner concentration levels, individual animal): 16.7 ng/mL
- concentration at 48 h (beagle, dog, plasma, 48 h, oral 35 μg/kg Days 0-3, dogs, n=6, read-out: fluralaner concentration levels, GeoMean): 32.8 ng/mL
- concentration at 48 h (beagle, dog, plasma, 48 h, oral 35 μg/kg Days 0-3, dogs, n=6, read-out: fluralaner concentration levels, Maximum): 40.9 ng/mL
- concentration at 48 h (beagle, dog, plasma, 48 h, oral 35 μg/kg Days 0-3, dogs, n=6, read-out: fluralaner concentration levels, Mean): 33.2 ng/mL
- concentration at 48 h (beagle, dog, plasma, 48 h, oral 35 μg/kg Days 0-3, dogs, n=6, read-out: fluralaner concentration levels, Median): 33.7 ng/mL
- concentration at 48 h (beagle, dog, plasma, 48 h, oral 35 μg/kg Days 0-3, dogs, n=6, read-out: fluralaner concentration levels, Minimum): 26.1 ng/mL
- concentration at 48 h (beagle, dog, plasma, 48 h, oral 35 μg/kg Days 0-3, dogs, read-out: fluralaner concentration levels, individual animal): 26.1 ng/mL
- concentration at 72 h (beagle, dog, plasma, 72 h, oral 35 μg/kg Days 0-3, dogs, n=6, read-out: fluralaner concentration levels, GeoMean): 51.7 ng/mL
- concentration at 72 h (beagle, dog, plasma, 72 h, oral 35 μg/kg Days 0-3, dogs, n=6, read-out: fluralaner concentration levels, Maximum): 61 ng/mL
- concentration at 72 h (beagle, dog, plasma, 72 h, oral 35 μg/kg Days 0-3, dogs, n=6, read-out: fluralaner concentration levels, Mean): 52.3 ng/mL
- concentration at 72 h (beagle, dog, plasma, 72 h, oral 35 μg/kg Days 0-3, dogs, n=6, read-out: fluralaner concentration levels, Median): 52.8 ng/mL
- concentration at 72 h (beagle, dog, plasma, 72 h, oral 35 μg/kg Days 0-3, dogs, n=6, read-out: fluralaner concentration levels, Minimum): 42 ng/mL
- concentration at 72 h (beagle, dog, plasma, 72 h, oral 35 μg/kg Days 0-3, dogs, read-out: fluralaner concentration levels, individual animal): 44.6 ng/mL
- concentration at 96 h (beagle, dog, plasma, 96 h, oral 35 μg/kg Days 0-3, dogs, n=6, read-out: fluralaner concentration levels, GeoMean): 84 ng/mL
- concentration at 96 h (beagle, dog, plasma, 96 h, oral 35 μg/kg Days 0-3, dogs, n=6, read-out: fluralaner concentration levels, Maximum): 92.4 ng/mL
- concentration at 96 h (beagle, dog, plasma, 96 h, oral 35 μg/kg Days 0-3, dogs, n=6, read-out: fluralaner concentration levels, Mean): 84.4 ng/mL
- concentration at 96 h (beagle, dog, plasma, 96 h, oral 35 μg/kg Days 0-3, dogs, n=6, read-out: fluralaner concentration levels, Median): 87 ng/mL
- concentration at 96 h (beagle, dog, plasma, 96 h, oral 35 μg/kg Days 0-3, dogs, n=6, read-out: fluralaner concentration levels, Minimum): 71.8 ng/mL
- concentration at 96 h (beagle, dog, plasma, 96 h, oral 35 μg/kg Days 0-3, dogs, read-out: fluralaner concentration levels, individual animal): 89.4 ng/mL
- concentration at 120 h (beagle, dog, plasma, 120 h, oral 35 μg/kg Days 0-3, dogs, n=6, read-out: fluralaner concentration levels, GeoMean): 63.8 ng/mL
- concentration at 120 h (beagle, dog, plasma, 120 h, oral 35 μg/kg Days 0-3, dogs, n=6, read-out: fluralaner concentration levels, Maximum): 72.3 ng/mL
- concentration at 120 h (beagle, dog, plasma, 120 h, oral 35 μg/kg Days 0-3, dogs, n=6, read-out: fluralaner concentration levels, Mean): 64.1 ng/mL
- concentration at 120 h (beagle, dog, plasma, 120 h, oral 35 μg/kg Days 0-3, dogs, n=6, read-out: fluralaner concentration levels, Median): 63.2 ng/mL
- concentration at 120 h (beagle, dog, plasma, 120 h, oral 35 μg/kg Days 0-3, dogs, n=6, read-out: fluralaner concentration levels, Minimum): 55.6 ng/mL
- concentration at 120 h (beagle, dog, plasma, 120 h, oral 35 μg/kg Days 0-3, dogs, read-out: fluralaner concentration levels, individual animal): 72.3 ng/mL
- concentration at 240 h (beagle, dog, plasma, 240 h, oral 35 μg/kg Days 0-3, dogs, n=6, read-out: fluralaner concentration levels, GeoMean): 43.9 ng/mL
- concentration at 240 h (beagle, dog, plasma, 240 h, oral 35 μg/kg Days 0-3, dogs, n=6, read-out: fluralaner concentration levels, Maximum): 54.9 ng/mL
- concentration at 240 h (beagle, dog, plasma, 240 h, oral 35 μg/kg Days 0-3, dogs, n=6, read-out: fluralaner concentration levels, Mean): 44.5 ng/mL
- concentration at 240 h (beagle, dog, plasma, 240 h, oral 35 μg/kg Days 0-3, dogs, n=6, read-out: fluralaner concentration levels, Median): 45.1 ng/mL
- concentration at 240 h (beagle, dog, plasma, 240 h, oral 35 μg/kg Days 0-3, dogs, n=6, read-out: fluralaner concentration levels, Minimum): 34.1 ng/mL
- concentration at 240 h (beagle, dog, plasma, 240 h, oral 35 μg/kg Days 0-3, dogs, read-out: fluralaner concentration levels, individual animal): 54.9 ng/mL
- concentration at 360 h (beagle, dog, plasma, 360 h, oral 35 μg/kg Days 0-3, dogs, n=6, read-out: fluralaner concentration levels, GeoMean): 39.5 ng/mL
- concentration at 360 h (beagle, dog, plasma, 360 h, oral 35 μg/kg Days 0-3, dogs, n=6, read-out: fluralaner concentration levels, Maximum): 43.5 ng/mL
- concentration at 360 h (beagle, dog, plasma, 360 h, oral 35 μg/kg Days 0-3, dogs, n=6, read-out: fluralaner concentration levels, Mean): 39.6 ng/mL
- concentration at 360 h (beagle, dog, plasma, 360 h, oral 35 μg/kg Days 0-3, dogs, n=6, read-out: fluralaner concentration levels, Median): 39.4 ng/mL
- concentration at 360 h (beagle, dog, plasma, 360 h, oral 35 μg/kg Days 0-3, dogs, n=6, read-out: fluralaner concentration levels, Minimum): 35.2 ng/mL
- concentration at 360 h (beagle, dog, plasma, 360 h, oral 35 μg/kg Days 0-3, dogs, read-out: fluralaner concentration levels, individual animal): 42.8 ng/mL
- concentration at 480 h (beagle, dog, plasma, 480 h, oral 35 μg/kg Days 0-3, dogs, n=6, read-out: fluralaner concentration levels, GeoMean): 22.1 ng/mL
- concentration at 480 h (beagle, dog, plasma, 480 h, oral 35 μg/kg Days 0-3, dogs, n=6, read-out: fluralaner concentration levels, Maximum): 26.6 ng/mL
